The results in this text go back to patent publication US20240123073A1, “NOVEL RIPK1 KINASE TARGETING PROTACS AND METHODS OF USE THEREOF” (Baylor College of Medicine, priority 2020, published 2024).

The experiment addresses T1, RIPK1 (Homo sapiens, UniProt Q13546).
T1 construct: endogenous in cells
T1 sequence (Q13546 1-671): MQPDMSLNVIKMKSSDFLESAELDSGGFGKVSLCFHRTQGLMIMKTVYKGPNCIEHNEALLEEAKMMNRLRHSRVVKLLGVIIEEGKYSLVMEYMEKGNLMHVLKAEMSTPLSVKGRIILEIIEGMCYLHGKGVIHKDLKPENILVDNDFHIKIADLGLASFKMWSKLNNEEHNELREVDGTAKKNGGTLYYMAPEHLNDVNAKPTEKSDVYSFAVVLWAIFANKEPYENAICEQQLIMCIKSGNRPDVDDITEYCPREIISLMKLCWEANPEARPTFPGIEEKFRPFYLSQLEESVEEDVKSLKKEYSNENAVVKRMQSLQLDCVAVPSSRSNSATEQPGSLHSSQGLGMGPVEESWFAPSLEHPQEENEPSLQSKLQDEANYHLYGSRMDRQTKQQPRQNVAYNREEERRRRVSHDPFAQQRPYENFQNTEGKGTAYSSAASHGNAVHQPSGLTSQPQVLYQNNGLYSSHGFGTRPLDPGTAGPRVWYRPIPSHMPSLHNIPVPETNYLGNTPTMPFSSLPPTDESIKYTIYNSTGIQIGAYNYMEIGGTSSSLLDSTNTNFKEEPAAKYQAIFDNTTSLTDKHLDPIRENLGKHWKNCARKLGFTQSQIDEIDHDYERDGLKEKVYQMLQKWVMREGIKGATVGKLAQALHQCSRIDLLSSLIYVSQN
The experiment can be described thus: RIPK1 degradation Western Blot assay. Particulars: human cells, 24 h incubation at 37° C., read-out: Degradation Activity (DC50, concentration at which 50% of RIPK1 kinase has been degraded). It is filed as cell-based. The method, then:
Cells were seeded in 6-well cell culture plates overnight prior to treatment and incubated with the indicated doses of compounds for 24 h at 37° C. Then, cell pellets were collected and resuspended with RIPA lysis buffer, which was added with 1% […] inhibitor and phosphatase inhibitor Cocktail. Whole-cell protein lysates were sonicated on ice for 20 seconds and centrifuged at 12 000 rpm for 20 min at 4° C. The supernatants were determined using the BCA method. Proteins were separated by sodium dodecyl sulfate-polyacrylamide gel electrophoresis and transferred to polyvinylidene fluoride membranes. The membranes were incubated with blocking buffer for 1 h. Then, the membranes were incubated at 4° C. overnight with the primary antibodies. After washing, the membranes were incubated for 1 h at room temperature with the secondary antibody and washed again. Changes in protein expression was detected using an enhanced chemiluminescence detection reagent. RIPK1 antibody was purchased from Santa Cruz.
The activities of exemplary compounds as described herein, measured in terms of the degradation concentration (DC50 representing the concentration at which 50% of the target, in this case RIPK1 kinase, has been degraded), are provided in Table 11. In Table 11, a DC50 value less than 1 μM is indicated as an “A;” a DC50 value from 1 μM to 10 μM is indicated as a “B” and a DC50 value of greater than 10 μM is indicated as a “C.”
Regarding `Cc1ncsc1-c1ccc([C@H](CC(=O)NCCCCCCCCC(=O)NCCCn2cc(-c3ccc4c(c3)CCN4C(=O)Cc3cccc(OC(F)(F)F)c3)c3c(N)ncnc32)NC(=O)[C@@H]2C[C@@H](O)CN2C(=O)[C@H](NC(=O)C2(F)CC2)C(C)(C)C)cc1` [Compound 40, (2S,4R)—N—((S)-3-((9-((3-(4-amino-5-(1-(2-(3-(trifluoromethoxy)phenyl)acetyl)indolin-5-yl)-7H-pyrrolo[2,3-d]pyrimidin-7-yl)propyl)amino)-9-oxononyl)amino)-1-(4-(4-methylthiazol-5-yl)phenyl)-3-oxopropyl)-1-((R)-2-(1-fluorocyclopropane-1-carboxamido)-3,3-dimethylbutanoyl)-4-hydroxypyrrolidine-2-carboxamide], the DC50 was less than 1000 nM.

On to `Cc1ncsc1-c1ccc([C@H](CC(=O)N2CCC(N3CCC(C#Cc4ccc(C(=O)NCCCn5cc(-c6ccc7c(c6)CCN7C(=O)Cc6cccc(OC(F)(F)F)c6)c6c(N)ncnc65)cc4)CC3)CC2)NC(=O)[C@@H]2C[C@@H](O)CN2C(=O)[C@@H](NC(=O)C2(F)CC2)C(C)(C)C)cc1` [Compound 45], for which the DC50 was less than 1000 nM.

Regarding `Cc1ncsc1-c1ccc([C@H](CC(=O)N2CCN(c3ccc(C#Cc4ccc(C(=O)NCCCn5cc(-c6ccc7c(c6)CCN7C(=O)Cc6cccc(OC(F)(F)F)c6)c6c(N)ncnc65)cc4)cn3)CC2)NC(=O)[C@@H]2C[C@@H](O)CN2C(=O)[C@@H](NC(=O)C2(F)CC2)C(C)(C)C)cc1` [Compound 46], the DC50 was less than 1000 nM.

On to `Cc1ncsc1-c1ccc([C@H](CC(=O)N2CCC(N3CCN(c4ccc(C#Cc5ccc(C(=O)NCCCn6cc(-c7ccc8c(c7)CCN8C(=O)Cc7cccc(OC(F)(F)F)c7)c7c(N)ncnc76)cc5)cn4)CC3)CC2)NC(=O)[C@@H]2C[C@@H](O)CN2C(=O)[C@@H](NC(=O)C2(F)CC2)C(C)(C)C)cc1` [Compound 47], for which the DC50 is greater than 10000 nM.

As for `Nc1ncnc2c1c(-c1ccc3c(c1)CCN3C(=O)Cc1cccc(OC(F)(F)F)c1)cn2CCCNC(=O)CCCCNC(=O)CN1CCC(c2ccc(NC3CCC(=O)NC3=O)cc2)CC1` (centres unmarked) [Compound 62], the DC50 was less than 1000 nM.

For the molecule `Nc1ncnc2c1c(-c1ccc3c(c1)CCN3C(=O)Cc1cccc(OC(F)(F)F)c1)cn2CCCNC(=O)c1ccc(C#CC2CCN(C3CCN(C(=O)CN4CCC(c5ccc(NC6CCC(=O)NC6=O)cc5)CC4)CC3)CC2)cc1` (centres unmarked) [Compound 66], the DC50 is less than 1000 nM.

Turning to `Nc1ncnc2c1c(-c1ccc3c(c1)CCN3C(=O)Cc1cccc(OC(F)(F)F)c1)cn2CCCNC(=O)c1ccc(C#Cc2ccc(N3CCN(C(=O)CN4CCC(c5ccc(NC6CCC(=O)NC6=O)cc5)CC4)CC3)nc2)cc1` (centres unmarked) [Compound 67], the DC50 was less than 1000 nM.

Regarding `Nc1ncnc2c1c(-c1ccc3c(c1)CCN3C(=O)Cc1cccc(OC(F)(F)F)c1)cn2CCCNC(=O)c1ccc(C#Cc2ccc(N3CC4(CN(C(=O)CN5CCC(c6ccc(NC7CCC(=O)NC7=O)cc6)CC5)C4)C3)nc2)cc1` (centres unmarked) [Compound 68], the DC50 was less than 1000 nM.

Regarding `Nc1ncnc2c1c(-c1ccc3c(c1)CCN3C(=O)Cc1cccc(OC(F)(F)F)c1)cn2CCCNC(=O)c1ccc(C#CC2CCN(C(=O)CN3CCC(c4ccc(NC5CCC(=O)NC5=O)cc4)CC3)CC2)cc1` (centres unmarked) [Compound 69], the DC50 lay within 1000 to 10000 nM.

As to `Cc1ncsc1-c1ccc([C@H](C)NC(=O)[C@@H]2C[C@@H](O)CN2C(=O)[C@@H](NC(=O)CCCCCCCCNC(=O)c2ccc(-c3cc(N4CCC(C(=O)N5N=CCC5c5ccccc5)CC4)ncn3)cc2)C(C)(C)C)cc1` (some centres unmarked) [Compound 77], the DC50 was greater than 10000 nM.

With `Cn1c(=O)n(C2CCC(=O)NC2=O)c2ccc(CCC(=O)N3CCC(N4CCC(C#Cc5ccc(C(=O)NCCCn6cc(-c7ccc8c(c7)CCN8C(=O)Cc7cccc(OC(F)(F)F)c7)c7c(N)ncnc76)cc5)CC4)CC3)cc21` (centres unmarked) [Compound 78], the DC50 is less than 1000 nM.

As to `Cn1c(=O)n(C2CCC(=O)NC2=O)c2ccc(CCC(=O)N3CCN(c4ccc(C#Cc5ccc(C(=O)NCCCn6cc(-c7ccc8c(c7)CCN8C(=O)Cc7cccc(OC(F)(F)F)c7)c7c(N)ncnc76)cc5)cn4)CC3)cc21` (centres unmarked) [Compound 79], the DC50 is less than 1000 nM.

For the molecule `Cn1c(=O)n(C2CCC(=O)NC2=O)c2ccc(CCC(=O)N3CCC(C#Cc4ccc(C(=O)NCCCn5cc(-c6ccc7c(c6)CCN7C(=O)Cc6cccc(OC(F)(F)F)c6)c6c(N)ncnc65)cc4)CC3)cc21` (centres unmarked) [Compound 80], the DC50 was less than 1000 nM.

As for `Cn1c(=O)n(C2CCC(=O)NC2=O)c2ccc(CCC(=O)c3ccc(C#Cc4ccc(C(=O)NCCCn5cc(-c6ccc7c(c6)CCN7C(=O)Cc6cccc(OC(F)(F)F)c6)c6c(N)ncnc65)cc4)cn3)cc21` (centres unmarked) [Compound 81], the DC50 was less than 1000 nM.
